Assay results as given in the NIST ThermoML archive (doi:10.1021/acs.jced.8b00310).

Assay: molar heat capacity at constant pressure
Conditions: Gas, Flow calorimetry

FC(F)C(F)(F)F [pentafluoroethane]
Conditions | molar heat capacity at constant pressure [J/K/mol]
303.15 K, 1500 kPa | 129.62
307.15 K, 1500 kPa | 123.62
311.15 K, 1500 kPa | 121.1
313.15 K, 1500 kPa | 121.58
314.15 K, 2000 kPa | 147.63
315.15 K, 2000 kPa | 145.71
316.15 K, 2000 kPa | 145.35
317.15 K, 2000 kPa | 144.27
318.15 K, 2000 kPa | 143.43
319.15 K, 2000 kPa | 140.18
319.15 K, 2200 kPa | 158.55
320.15 K, 2000 kPa | 138.38
320.15 K, 2200 kPa | 159.03
321.15 K, 2000 kPa | 139.7
321.15 K, 2200 kPa | 156.99
322.15 K, 2000 kPa | 135.62
323.15 K, 2200 kPa | 153.75
323.15 K, 2400 kPa | 173.91
324.15 K, 2400 kPa | 168.03
325.15 K, 2400 kPa | 161.31
326.15 K, 2400 kPa | 159.03
327.15 K, 2400 kPa | 157.47
343.15 K, 500 kPa | 103.22
343.15 K, 650 kPa | 105.62
343.15 K, 1000 kPa | 108.26
343.15 K, 1500 kPa | 115.7
343.15 K, 2000 kPa | 123.14
343.15 K, 2200 kPa | 128.3
343.15 K, 2400 kPa | 134.42
